Data reported in patent US5288705A, “Manipulation of ovulation and spawning in fish” (Israel Oceanographic & Limnological Research Ltd., priority 1988, dated 1994).

What was measured:
Assay type in all cases: in vivo
[1] = test system: females of rainbow trout, Salmo gaixdneri; experiment: Blood GtH levels after hormone administration (Example 4)
Experimental: (§1) 24 females of rainbow trout, Salmo gaixdneri, were divided into four groups, six fish in each group. Each group received one of the following treatments:
(§2) 1. Injection of the mammalian GnRHa as in Example 1 ([…] body weight), in saline;
(§3) 2. Administration of a biodegradable copolymer of polylactic-polyglycolic acid containing the same GnRHa (150 mg/fish 150 μg/fish) in pellets, implanted under the fish's skin;
(§4) 3. Ethylene vinyl acetate copolymer pellets containing a fish GnRH analog (GNRHH) - [D-Arg^6 -Pro^9 -NET]sGnRH (150 mg/fish 150 μg/fish),implanted under the skin;
All fish were bled before and at different intervals after hormone administration, for the determination of blood GtH levels, similarly as in Example 1.

[2] = test system: Female seabream (Sparus aurata); experiment: Plasma GtH levels by specific homologous radioimmunoassay after GnRHa administration (Example 1); details: FIG. 1
Experimental: (§5) Female seabream (Sparus aurata) reaching final stages of vitellogenesis received one of the following treatment of GnRHa - an analog of mammalian GNRH ([D-Ala^6 -Pro^9 -NET]-LHRH):
(§6) 1. An intramuscular injection of GnRHa in a saline solution (10 μg GnRHa/kg body weight which is an acceptable amount for injection);
(§7) 2. Implantation of a Silastic implant (Sila.) according to Crim et al., 1986, containing GnRHa (150 μg GnRHa/fish);
(§8) 3. Implantation of a biodegradable copolymer of polylacticpolyglycolic acid (Z. implant) containing GnRHa (150 μg GnRHa/fish);
(§9) 4. Placebo injection of saline (Control).
Before the treatment and at various intervals thereafter, the fish were bled. After withdrawing a blood sample the fish were returned into the water. GtH levels were determined in the withdrawn blood sample by specific homologous radioimmunoassay. The results are shown in FIG. 1 of the annexed drawings.

[3] = test system: females of rainbow trout, Salmo gaixdneri; experiment: Occurrence of ovulation monitored by ovarian biopsy (Example 4)
Experimental: as §1, §2, §3, §4
An additional four groups of 20 females in each group, undergoing advanced stages of vitellogenesis, were treated as above and used for monitoring the state of ovarian development and the occurrence of ovulation. An overian biopsy was sampled from these females every 2 to 4 days for 30 days post-treatment.

[4] = test system: Female seabream (Sparus aurata); experiment: Spawning activity of treated females kept with two males (Example 1); details: spawning activity = tens of thousands of fertilized eggs per day over more than one week
Experimental: as §5, §6, §7, §8, §9
Additionally, several treated, non-bled females from each treatment group were kept, each in a separate container, which was connected to an egg collector, together with two males. The females were followed for their spawning activity, which was defined in this experiment as tens of thousands of fertilized eggs collected per day over a period of more than one week.

For [D-Ala^6 -Pro^9 -NET]-LHRH [Group 1], the “period of GtH level surge in plasma” value [1] was “about 48 hrs”, the “plasma GtH level / GtH release” value [2] was “decreased rapidly” and the “degree of ovulation (in percent of ovulated females)” value ([3]; 6 days post treatment) was 30%. The “degree of ovulation (in percent of ovulated females)” value ([3]; 9 days post treatment) was 40%, the “degree of ovulation (in percent of ovulated females)” value ([3]; 30 days post treatment) was 60% and the “acceleration / synchronization of ovulation” value ([3]; versus control group) was “did not accelerate or synchronize ovulation”. For the same substance, the “percentage of the females showing spawning activity” value [4] was 25%.
